# Molecular target: T1, GST-RIPK1 (recombinant GST-RIPK1 kinase domain (residues 1-327)) (Homo sapiens, UniProt Q13546)
# T1 construct: recombinant GST-RIPK1 kinase domain (residues 1-327) enzyme produced from baculovirus-transfected Sf21 cells; host or cells: baculovirus-transfected Sf21 insect cells
# T1 sequence (Q13546 1-327): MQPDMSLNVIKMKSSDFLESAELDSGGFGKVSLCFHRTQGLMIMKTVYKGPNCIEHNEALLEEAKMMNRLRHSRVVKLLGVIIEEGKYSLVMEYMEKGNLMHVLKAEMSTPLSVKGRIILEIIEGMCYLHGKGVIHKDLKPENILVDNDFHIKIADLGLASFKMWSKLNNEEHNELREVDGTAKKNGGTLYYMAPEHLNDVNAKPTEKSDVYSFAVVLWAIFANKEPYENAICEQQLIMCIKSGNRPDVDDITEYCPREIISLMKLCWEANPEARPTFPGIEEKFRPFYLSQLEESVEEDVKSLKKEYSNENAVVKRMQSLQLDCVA
# Test: RIPK1-ADP-Glo Enzymatic Assay
# Format: biochemical
# Details: ten-point titration, top compound concentration of 100000 nM; 25 nM GST-RIPK1, 300 μM ATP, 3 μM dephosphorylated-MBP; 30 min pre-incubation, 150 min reaction
# Outline: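 ADP-Glo luminescence quantifies ADP formed over 150 minutes by 25 nM Sf21-produced GST-RIPK1 (1-327) using 300 μM ATP and 3 μM dephosphorylated MBP, following 30-minute compound preincubation at 1% DMSO. Ten-point 1:3 series from 100000 nM gave EC50 via four-parameter sigmoidal regression.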
row,Structure (SMILES),EC50 [µM]
1,"O=C(O[C@H]1C[C@@]2(C1)O[C@@H]1CC[C@@H](c3cc(F)cc(F)c3)N1C2=O)c1ccccn1 [Example 13, (1r,3R,5′S,7a′R)-5′-(3,5-difluorophenyl)-3′-oxotetrahydro-3′H-spiro[cyclobutane-1,2′-pyrrolo[2,1-b]oxazol]-3-yl picolinate]",0.165
2,"O=C1N2[C@@H](CC[C@H]2c2cnccn2)O[C@]12C[C@@H](OCc1cccnc1)C2 [Example 18.1, (1S,3S,5′S,7a′R)-5′-(pyrazin-2-yl)-3-(pyridin-3-ylmethoxy)tetrahydro-3′H-spiro[cyclobutane-1,2′-pyrrolo[2,1-b]oxazol]-3′-one]",0.1
3,"O=C1N2C(CC[C@H]2c2cnccn2)OC12CC(OCc1cnc3nncn3c1)C2 (stereo partly drawn) [Example 18.2, (5′S)-5′-(pyrazin-2-yl)-3-[([1,2,4]triazolo[4,3-a]pyrimidin-6-yl)methoxy]tetrahydro-3′H-spiro[cyclobutane-1,2′-pyrrolo[2,1-b][1,3]oxazol]-3′-one]",0.066
4,"O=C1N2C(CC[C@H]2c2cnccn2)OC12CC(OCc1cnn(C3CC3)c1)C2 (stereo partly drawn) [Example 18.3, (5′S)-3-[(1-cyclopropyl-1H-pyrazol-4-yl)methoxy]-5′-(pyrazin-2-yl)tetrahydro-3′H-spiro[cyclobutane-1,2′-pyrrolo [2,1-b][1,3]oxazol]-3′-one]",0.969
5,"Cn1cc(COC2CC3(C2)OC2CC[C@@H](c4cnccn4)N2C3=O)cn1 (stereo partly drawn) [Example 18.5, (5′S)-3-[(1-methyl-1H-pyrazol-4-yl)methoxy]-5′-(pyrazin-2-yl)tetrahydro-3′H-spiro[cyclobutane-1,2′-pyrrolo[2,1-b][1,3]oxazol]-3′-one]",0.307
6,"O=C1N2[C@@H](CC[C@H]2c2cnccn2)OC12CC(OCc1cnn(C34CC(C3)C4)c1)C2 (stereo partly drawn) [Example 18.6, (5′S, 7a′R)-3-{[1-(bicyclo[1.1.1]pentan-1-yl)-1H-pyrazol-4-yl]methoxy}-5′-(pyrazin-2-yl)tetrahydro-3′H-spiro[cyclobutane-1,2′-pyrrolo[2,1-b][1,3]oxazol]-3′-one]",0.365
7,"CCOc1ncc(COC2CC3(C2)OC2CC[C@@H](c4cnccn4)N2C3=O)cn1 (stereo partly drawn) [Example 18.8, (5′S)-3-[(2-ethoxypyrimidin-5-yl)methoxy]-5′-(pyrazin-2-yl)tetrahydro-3′H-spiro[cyclobutane-1,2′-pyrrolo[2,1-b][1,3]oxazol]-3′-one]",0.466
8,"O=C1N2C(CC[C@H]2c2cnccn2)OC12CC(OCc1cccc(CCn3cnnc3)c1)C2 (stereo partly drawn) [Example 18.9, (5′S)-5′-(pyrazin-2-yl)-3-({3-[2-(4H-1,2,4-triazol-4-yl)ethyl]phenyl}methoxy)tetrahydro-3′H-spiro[cyclobutane-1,2′-pyrrolo[2,1-b][1,3]oxazol]-3′-one]",0.1
9,"O=C1N2C(CC[C@H]2c2cnccn2)OC12CC(OCc1ccc(C(F)F)cn1)C2 (stereo partly drawn) [Example 18.11, (5′S)-3-{[5-(difluoromethyl)pyridin-2-yl]methoxy}-5′-(pyrazin-2-yl)tetrahydro-3′H-spiro[cyclobutane-1,2′-pyrrolo[2,1-b][1,3]oxazol]-3′-one]",0.089
10,"O=C1N2C(CC[C@H]2c2cnccn2)OC12CC(OCc1nnc(Cc3ccccc3)s1)C2 (stereo partly drawn) [Example 18.12, (5′S)-3-[(5-benzyl-1,3,4-thiadiazol-2-yl)methoxy]-5′-(pyrazin-2-yl)tetrahydro-3′H-spiro[cyclobutane-1,2′-pyrrolo[2,1-b][1,3]oxazol]-3′-one]",0.181
11,"Cc1cnn(-c2cnc(COC3CC4(C3)OC3CC[C@@H](c5cnccn5)N3C4=O)cn2)c1 (stereo partly drawn) [Example 18.15, (5′S)-3-{[5-(4-methyl-1H-pyrazol-1-yl)pyrazin-2-yl]methoxy}-5′-(pyrazin-2-yl)tetrahydro-3′H-spiro[cyclobutane-1,2′-pyrrolo[2,1-b][1,3]oxazol]-3′-one]",0.076
12,"CSc1nnc2ccc(COC3CC4(C3)OC3CC[C@@H](c5cnccn5)N3C4=O)cn12 (stereo partly drawn) [Example 18.16, (5′S)-3-{[3-(methylsulfanyl)[1,2,4]triazolo[4,3-a]pyridin-6-yl]methoxy}-5′-(pyrazin-2-yl)tetrahydro-3′H-spiro[cyclobutane-1,2′-pyrrolo[2,1-b][1,3]oxazol]-3′-one]",0.349
13,"CS(=O)(=O)c1ccc(COC2CC3(C2)OC2CC[C@@H](c4cnccn4)N2C3=O)cc1 (stereo partly drawn) [Example 18.17, (5′S)-3-{[4-(methylsulfonyl)phenyl]methoxy}-5′-(pyrazin-2-yl)tetrahydro-3′H-spiro[cyclobutane-1,2′-pyrrolo[2,1-b][1,3]oxazol]-3′-one]",0.145
14,"O=C1N2C(CC[C@H]2c2cnccn2)OC12CC(OCc1ccc3nccn3c1)C2 (stereo partly drawn) [Example 18.19, (5′S)-3-[(imidazo[1,2-a]pyridin-6-yl)methoxy]-5′-(pyrazin-2-yl)tetrahydro-3′H-spiro[cyclobutane-1,2′-pyrrolo[2,1-b][1,3]oxazol]-3′-one]",0.11

# Stronger by EC50, values ahead:
row,EC50 [µM],Structure (SMILES)
1,0.027,"O=C1N2[C@@H](CC[C@H]2c2ccc(F)cc2)O[C@]12C[C@H](Oc1cc(-c3nn[nH]n3)ccn1)C2 [Example 10.7, (1r,3R,5′S,7a′R)-3-((4-(2H-tetrazol-5-yl)pyridin-2-yl)oxy)-5′-(4-fluorophenyl)tetrahydro-3′H-spiro[cyclobutane-1,2′-pyrrolo[2,1-b]oxazol]-3′-one]"
2,0.012,"O=C1N2[C@@H](CC[C@H]2c2cc(F)cc(F)c2)O[C@]12C[C@H](Oc1ncnn3c(Br)ccc13)C2 [Example 11.1, (1r,3R,5′S,7a′R)-3-((7-bromopyrrolo[2,1-f][1,2,4]triazin-4-yl)oxy)-5′-(3,5-difluorophenyl)tetrahydro-3′H-spiro[cyclobutane-1,2′-pyrrolo[2,1-b]oxazol]-3′-one]"
3,0.016,"N#Cc1ccc2c(O[C@H]3C[C@@]4(C3)O[C@@H]3CC[C@@H](c5cc(F)cc(F)c5)N3C4=O)ncnn12 [Example 11.2, 4-(((1r,3R,5′S,7a′R)-5′-(3,5-difluorophenyl)-3′-oxotetrahydro-3′H-spiro[cyclobutane-1,2′-pyrrolo[2,1-b]oxazol]-3-yl)oxy)pyrrolo[2,1-f][1,2,4]triazine-7-carbonitrile]"
4,0.019,"N#Cc1ccc2c(O[C@H]3C[C@@]4(C3)O[C@@H]3CC[C@@H](c5ccc(F)cc5)N3C4=O)ncnn12 [Example 11.3, 4-(((1r,3R,5′S,7a′R)-5′-(4-fluorophenyl)-3′-oxotetrahydro-3′H-spiro[cyclobutane-1,2′-pyrrolo[2,1-b]oxazol]-3-yl)oxy)pyrrolo[2,1-f][1,2,4]triazine-7-carbonitrile]"
5,0.016,"O=C1N2[C@@H](CC[C@H]2c2cnccn2)OC12CC(Oc1cc(F)ccc1F)C2 (stereo partly drawn) [Example 12.6, (5′S,7a′R)-3-(2,5-difluorophenoxy)-5′-(pyrazin-2-yl)tetrahydro-3′H-spiro[cyclobutane-1,2′-pyrrolo[2,1-b][1,3]oxazol]-3′-one]"
6,0.013,"O=C(O[C@H]1C[C@@]2(C1)O[C@@H]1CC[C@@H](c3cc(F)cc(F)c3)N1C2=O)c1ccccc1 [Example 14, (1r,3R,5′S,7a′R)-5′-(3,5-difluorophenyl)-3′-oxotetrahydro-3′H-spiro[cyclobutane-1,2′-pyrrolo[2,1-b]oxazol]-3-yl benzoate]"
7,0.045,"O=C1N2C(CC[C@H]2c2cnccn2)OC12CC(OCc1cnn3cccnc13)C2 (stereo partly drawn) [Example 18.4, (5′S)-5′-(pyrazin-2-yl)-3-[(pyrazolo[1,5-a]pyrimidin-3-yl)methoxy]tetrahydro-3′H-spiro[cyclobutane-1,2′-pyrrolo[2,1-b][1,3]oxazol]-3′-one]"
8,0.052,"O=C1N2C(CC[C@H]2c2cnccn2)OC12CC(OCc1cnn(-c3ccccc3)c1)C2 (stereo partly drawn) [Example 18.7, (5′S)-3-[(1-phenyl-1H-pyrazol-4-yl)methoxy]-5′-(pyrazin-2-yl)tetrahydro-3′H-spiro[cyclobutane-1,2′-pyrrolo [2,1-b][1,3]oxazol]-3′-one]"
9,0.012,"N#CCc1cccc(COC2CC3(C2)OC2CC[C@@H](c4cnccn4)N2C3=O)c1 (stereo partly drawn) [Example 18.10, [3-({[(5′S)-3′-oxo-5′-(pyrazin-2-yl)tetrahydro-3′H-spiro[cyclobutane-1,2′-pyrrolo[2,1-b][1,3]oxazol]-3-yl]oxy}methyl)phenyl]acetonitrile]"
10,0.046,"CCC(C)Oc1cccc(COC2CC3(C2)OC2CC[C@@H](c4cnccn4)N2C3=O)n1 (stereo partly drawn) [Example 18.13, (5′S)-3-({6-[(butan-2-yl)oxy]pyridin-2-yl}methoxy)-5′-(pyrazin-2-yl)tetrahydro-3′H-spiro[cyclobutane-1,2′-pyrrolo[2,1-b][1,3]oxazol]-3′-one]"
11,0.016,"N#Cc1ccc(COC2CC3(C2)OC2CC[C@@H](c4cnccn4)N2C3=O)c2cccnc12 (stereo partly drawn) [Example 18.14, 5-({[(5′S)-3′-oxo-5′-(pyrazin-2-yl)tetrahydro-3′H-spiro[cyclobutane-1,2′-pyrrolo[2,1-b][1,3]oxazol]-3-yl]oxy}methyl)quinoline-8-carbonitrile]"
12,0.018,"O=C1N2C(CC[C@H]2c2cnccn2)OC12CC(OCc1csc3ncccc13)C2 (stereo partly drawn) [Example 18.18, (5′S)-5′-(pyrazin-2-yl)-3-[(thieno[2,3-b]pyridin-3-yl)methoxy]tetrahydro-3′H-spiro[cyclobutane-1,2′-pyrrolo[2,1-b][1,3]oxazol]-3′-one]"

# Reference: patent US20250154173A1 (Merck Sharp & Dohme LLC, priority 2023, published 2025)
